This is an account of results in patent EP0233461B2, “4,5,6-Substituted-2-pyrimidinamines” (AMERICAN CYANAMID COMPANY, priority 1986, dated 1987).

Counter-ions that a name gives are not always drawn.

The subject of the first test is human basophils. Kind of test: Inhibition of histamine release from immunologically stimulated human basophils. The format is cell-based. The following applies: Homo sapiens, concentration causing 50% inhibition of histamine release, by linear regression; active if IC50 ≦ 48 µM. Summed up: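 Leukocytes from sedimented human blood, washed in Tris-A and resuspended in Tris-ACM, were challenged with anti-IgE or antigen, with or without compound, for 60 min at 37 °C. Released histamine was measured fluorometrically after OPT derivatization and expressed as percent of total (perchloric acid lysate), corrected for spontaneous release.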
In general, IC50 refers to the concentration that inhibits the measured activity by half. As for `Cc1cc(C)cc(Nc2nccc(-c3ccccn3)n2)c1` [N-(3,5-Dimethylphenyl)-4-(2-pyridinyl)-2-pyrimidinamine, sulfate], the IC50 stood at 0.6 µM.

The same test, now with this note: Homo sapiens, concentration causing 50% inhibition of histamine release, by linear regression; active if IC50 ≦ 48 µM; read-out: IC50.
Regarding `CC(=O)N(C)c1ccc(Nc2nccc(-c3ccccn3)n2)cc1` [N-Methyl-N-[4-[[4-(2-pyridinyl)-2-pyrimidinyl]amino]phenyl]acetamide], the IC50 came to 0.6 µM.

`CN(C)c1ccc(Nc2nccc(-c3ccccn3)n2)cc1` [N,N-Dimethyl-N'-[4-(2-pyridinyl)-2-pyrimidinyl]-1,4-benzenediamine, dihydrochloride]: the IC50 amounted to 4.4 µM.

For `CN(C)c1ccc(Nc2nccc(-c3ccsc3)n2)cc1` [N,N-Dimethyl-N'-[4-(3-thienyl)-2-pyrimidinyl]-1,4-benzenediamine], the IC50 is 2.1 µM.

`NS(=O)(=O)c1cccc(Nc2nccc(-c3ccccn3)n2)c1` [3-[[4-(2-Pyridinyl)-2-pyrimidinyl]amino]benzenesulfonamide]: the IC50 stood at 0.7 µM.

In the case of `CCN(CC)CCNC(=O)c1ccc(Nc2nccc(-c3cccnc3)n2)cc1` [N-[2-(Diethylamino)ethyl]-4-[[4-(3-pyridinyl)-2-pyrimidinyl]amino]benzamide], the IC50 is 0.8 µM.

With `CC(C)(C)c1ccc(Nc2nccc(-c3cccnc3)n2)cc1` [N-[4-(1,1-Dimethylethyl)phenyl]-4-(3-pyridinyl)-2-pyrimidinamine], the IC50 was 0.7 µM.

As for `CN(C)CCOc1ccc(Nc2nccc(-c3cccnc3)n2)cc1` [N-[4-[2-(Dimethylamino)ethoxy]phenyl]-4-(3-pyridinyl)-2-pyrimidinamine], the IC50 was 0.5 µM.

Take `Fc1ccc(Nc2nccc(-c3ccncc3)n2)c(F)c1` [N-(2,4-Difluorophenyl)-4-(4-pyri-dinyl)-2-pyrimidinamine]: the IC50 was less than 48 µM.

Turning to `Cc1cc(C)cc(Nc2nccc(-c3ccncc3)n2)c1` [N-(3,5-Dimethylphenyl)-4-(4-pyridinyl)-2-pyrimidinamine], the IC50 stood at 4.4 µM.

`Cc1ccc(Nc2nccc(-c3ccccn3)n2)cc1C` [N-(3,4-Dimethylphenyl)-4-(2-pyridinyl)-2-pyrimidinamine]: the IC50 was 5.9 µM.

As for `CC(C)N(CCOc1ccc(Nc2nccc(-c3cccnc3)n2)cc1)C(C)C` [N-[4-[2-[bis(1-Methylethyl)amino]ethoxy]phenyl]-4-(3-pyridinyl)-2-pyrimidinamine], the IC50 came out at 4.6 µM.

For the molecule `Cc1cccc(Nc2nccc(-c3ccc(C)o3)n2)c1` [4-(5-Methyl-2-furanyl)-N-(3-methylphenyl)-2-pyrimidinamine], the IC50 worked out at 2 µM.

For `CCN(CC)c1ccc(Nc2nccc(-c3ccc(C)o3)n2)cc1` [N,N-Diethyl-N'-[4-(5-methyl-2-fur-anyl)-2-pyrimidinyl]-1,4-benzene-diamine], the IC50 worked out at 28 µM.

With `Nc1ccc(Nc2nccc(-c3ccncc3)n2)cc1` [N-[4-(4-Pyridinyl)-2-pyrimidinyl]-1,4-benzenediamine, hydrochloride], the IC50 was found to be 3 µM.

`Cc1cc(C)cc(Nc2ncc(C)c(-c3ccco3)n2)c1` [N-(3,5-Dimethylphenyl)-4-(2-furanyl)-5-methyl-2-pyrimidinamine]: the IC50 is less than 24 µM.

With `Fc1ccc(Nc2nccc(-c3cccnc3)n2)cc1` [N-(4-Fluorophenyl)-4-(3-pyridinyl)-2-pyrimidinamine], the IC50 was less than 48 µM.

On to `CCOC(=O)c1cccc(Nc2nccc(-c3ccccn3)n2)c1` [3-[[4-(2-Pyridinyl)-2-pyrimidinyl]amino]benzoic acid, ethyl ester], for which the IC50 was 3 µM.

As for `CC(=O)Nc1ccc(Nc2nccc(-c3ccncc3)n2)cc1C` [N-[2-Methyl-4-[[4-(4-pyridinyl)-2-pyrimidinyl]amino]phenyl]acetamide], the IC50 came to 1.2 µM.

Regarding `Cc1ccc(CNc2nccc(-c3ccccn3)n2)cc1C` [N-[(3,4-Dimethylphenyl)methyl]-4-(2-pyridinyl)-2-pyrimidinamine], the IC50 was determined as 39.8 µM.

Consider `c1ccc(-c2ccnc(Nc3cccc4ccccc34)n2)nc1` [N-1-Naphthalenyl-4-(2-pyridinyl)-2-pyrimidinamine], for which the IC50 was 3 µM.

Turning to `FC(F)(F)c1cccc(Nc2nccc(-c3cccnc3)n2)c1` [4-(3-Pyridinyl)-N-[3-(trifluoromethyl)phenyl]-2-pyrimidinamine, hydrochloride], the IC50 came out at 0.7 µM.

For `COc1ccc(C)cc1Nc1nccc(-c2ccncc2)n1` [N-(2-Methoxy-5-methylphenyl)-4-(4-pyridinyl)-2-pyrimidinamine], the IC50 is 6.9 µM.

In the case of `COC(=O)c1ccc(Nc2nccc(-c3ccncc3)n2)cc1` [4-[[4-(4-Pyridinyl)-2-pyrimidinyl]amino]benzoic acid, methyl ester], the IC50 turned out to be 27.5 µM.

Turning to `CON=C(C)c1ccc(Nc2nccc(-c3cccnc3)n2)cc1` [1-[4-[[4-(3-Pyridinyl)-2-pyrimidinyl]amino]phenyl]ethanone, O-methyloxime], the IC50 turned out to be 5.1 µM.

Consider `CCN(CC)CCOc1cccc(Nc2nccc(-c3cccs3)n2)c1` [N-[3-[2-(Diethylamino)ethoxy]phen-yl]-4-(2-thienyl)-2-pyrimidinamine], for which the IC50 came to 0.6 µM.

Turning to `Cc1cccc(Nc2nccc(-c3ccnc4ccccc34)n2)c1` [N-(3-Methylphenyl)-4-(4-quinolinyl)-2-pyrimidinamine], the IC50 worked out at 10.9 µM.

On to `CCN(CC)CCOc1cccc(Nc2nccc(-c3ccncc3)n2)c1` [N-[3-[2-(Diethylamino)ethoxy]phenyl]-4-(4-pyridinyl)-2-pyrimidinamine], for which the IC50 turned out to be 0.7 µM.

Regarding `Cc1cc(C)cc(Nc2nccc(-c3cccs3)n2)c1` [N-(3,5-Dimethylphenyl)-4-(2-thienyl)-2-pyrimidinamine], the IC50 amounted to 4.3 µM.

Regarding `CC(C)c1ccc(Nc2nccc(-c3cccnc3)n2)cc1` [N-[4-(1-Methylethyl)phenyl]-4-(3-pyridinyl)-2-pyrimidinamine], the IC50 is 1.1 µM.

Consider `CNc1ccc(Nc2nccc(-c3cccnc3)n2)cc1` [N-Methyl-N'-[4-(3-pyridinyl)-2-pyrimidinyl]-1,4-benzenediamine], for which the 50% inhibitory concentration (IC50) amounted to 2.1 µM.

With `Oc1ccc(Nc2nccc(-c3cccnc3)n2)cc1` [4-[[4-(3-Pyridinyl)-2-pyrimidinyl]amino]phenol], the 50% inhibitory concentration (IC50) was 5.1 µM.

Take `Cc1cccc(Nc2nccc(-c3ccncc3)n2)c1` [N-(3-Methylphenyl)-4-(4-pyridinyl)-2-pyrimidinamine]: the IC50 amounted to 9.4 µM.

For `Nc1ccc(Nc2nccc(-c3ccccn3)n2)cc1` [N-[4-(2-Pyridinyl)-2-pyrimidinyl]-1,4-benzenediamine, dihydrochloride], the IC50 worked out at 1 µM.

Take `CN1CCN(c2ccc(Nc3nccc(-c4ccccn4)n3)cc2)CC1` [N-[4-(4-Methyl-1-piperazinyl)phenyl]-4-(2-pyridinyl)-2-pyrimidinamine]: the IC50 is less than 24 µM.

With `CCc1ccc(Nc2nccc(-c3ccnc4ccccc34)n2)cc1` [N-(4-Ethylphenyl)-4-(4-quinolinyl)-2-pyrimidinamine], the IC50 was 4 µM.

On to `c1ccc(-c2ccnc(NC3CCCC3)n2)nc1` [N-Cyclopentyl-4-(2-pyridinyl)-2-pyrimidinamine], for which the concentration for half-maximal inhibition (IC50) is 2.2 µM.

With `Cc1cccc(Nc2nccc(-c3cccn3C)n2)c1` [N-(3-Methylphenyl)-4-(1-methyl-1H-pyrrol-2-yl)-2-pyrimidinamine], the 50% inhibitory concentration (IC50) was found to be 9.4 µM.

Consider `CCN(CC)c1ccc(Nc2nccc(-c3cc4ccccc4o3)n2)cc1` [N'-[4-(2-Benzofuranyl)-2-pyrimidinyl]-N,N-diethyl-1,4-benzenediamine], for which the half-maximal inhibitory concentration (IC50) stood at 6.2 µM.

The test is the same for the next values; noted with them: concentration causing 50% inhibition of histamine release, by linear regression; active if IC50 ≦ 48 µM; phosphate; read-out: IC50.
Take `COc1ccc(Nc2nccc(-c3cccnc3)n2)cc1` [N-(4-Methoxyphenyl)-4-(3-pyridinyl)-2-pyrimidinamine, phosphate]: the IC50 turned out to be 3.2 µM.

`c1ccc(Nc2nccc(-c3ccncc3)n2)cc1` [N-Phenyl-4-(4-pyridinyl)-2-pyrimidinamine, phosphate]: the 50% inhibitory concentration (IC50) worked out at 3.3 µM.

The test is the same for the next values; noted with them: concentration causing 50% inhibition of histamine release, by linear regression; active if IC50 ≦ 48 µM; read-out: IC50.
For the molecule `c1ccc(Nc2nccc(-c3ccncc3)n2)cc1` [N-Phenyl-4-(4-pyridinyl)-2-pyrimidinamine], the IC50 worked out at 0.9 µM.

Take `COc1ccc(Nc2nccc(-c3cccnc3)n2)cc1` [N-(4-Methoxyphenyl)-4-(3-pyridinyl)-2-pyrimidinamine]: the IC50 was 1.4 µM.

In the case of `CN(C)c1ccc(Nc2nccc(-c3ccccn3)n2)cc1` [N-[4-(Dimethylamino)phenyl]-4-(2-pyridinyl)-2-pyrimidinamine], the IC50 worked out at 2.7 µM.

With `CN(C)c1cccc(Nc2nccc(-c3ccncc3)n2)c1` [N,N-Dimethyl-N'-[4-(4-pyridinyl)-2-pyrimidinyl)]-1,3-benzene] [N,N-Dimethyl-N'-[4-(4-pyridinyl)-2-pyrimidinyl)]-1,3-benzenediamine, sulfate], the IC50 was 1 µM.

Consider `c1ccc(Nc2nccc(-c3ccncc3)n2)cc1` [N-Phenyl-4-(4-pyridinyl)-2-pyrimidinamine, compound with 2-h] [N-Phenyl-4-(4-pyridinyl)-2-pyrimidinamine, compound with 2-hydroxy-1,2,3-propanetricarboxylate (2:1)], for which the IC50 was 3.5 µM.

Staying with this test, now noted: concentration causing 50% inhibition of histamine release, by linear regression; active if IC50 ≦ 48 µM; sulfate.
`Cc1cccc(Nc2nccc(-c3cccs3)n2)c1` [N-(3-Methylphenyl)-4-(2-thienyl)-2-pyrimidinamine, sulfate]: the IC50 came to 3 µM.

In turn, `FC(F)(F)c1cccc(Nc2nccc(-c3ccncc3)n2)c1` [4-(4-Pyridinyl)-N-[3-(trifluoromethyl)phenyl]-2-pyrimidinamine, sulfate] came in with an IC50 of less than 48 µM.

For `FC(F)(F)c1cccc(Nc2nccc(-c3cccnc3)n2)c1` [4-(3-Pyridinyl)-N-[3-(trifluoromethyl)phenyl]-2-pyrimidinamine, sulfate], the IC50 was 2.6 µM.

The molecule `FC(F)(F)c1cccc(Nc2nccc(-c3ccccn3)n2)c1` [4-(2-Pyridinyl)-N-[3-(trifluoromethyl)phenyl]-2-pyrimidinamine, sulfate] registered an IC50 of 3 µM.
